Test results published in BigSolDB 2.1.

Conditions: in water

O=C([O-])c1cccc(S(=O)(=O)O)c1.[Na+]
Conditions | solubility (mole fraction)
278.15 K | 0.0276
283.15 K | 0.0296
288.15 K | 0.032
293.15 K | 0.0346
298.15 K | 0.0372
303.15 K | 0.0417
308.15 K | 0.0459
313.15 K | 0.0519
318.15 K | 0.0584
323.15 K | 0.0687
